Data from ChEMBL document CHEMBL4251565, “Functionalized 2,1-benzothiazine 2,2-dioxides as new inhibitors of Dengue NS5 RNA-dependent RNA polymerase” (Eur J Med Chem, 2018).
Active and inactive are the calls of the source. No cut-off for these calls is given here.

Assays:
[1] = system: O=C(OC1=CS(=O)(=O)Nc2ccc(Oc3ccccc3Br)cc21)c1ccc(F)c(F)c1; assay: Mixed type inhibition of DENV3 NS5 RdRp using increasing concentration of GTP as substrate assessed as enzyme Vmax after 1 hr in presence of ss-RNA PolyC template by Lineweaver-Burk double reciprocal plot analysis; details: dengue virus type 3
[2] = system: O=C(OC1=CS(=O)(=O)Nc2ccc(Oc3ccccc3Br)cc21)c1ccc(F)c(F)c1; assay: Mixed type inhibition of DENV3 NS5 RdRp using increasing concentration of ss-RNA PolyC as template assessed as Km for substrate after 1 hr in presence of GTP substrate after 1 hr by Lineweaver-Burk double reciprocal plot analysis; details: dengue virus type 3
[3] = system: O=C(OC1=CS(=O)(=O)Nc2ccc(Oc3ccccc3Br)cc21)c1ccc(F)c(F)c1; assay: Mixed type inhibition of DENV3 NS5 RdRp using increasing concentration of GTP as substrate assessed as Km for substrate after 1 hr in presence of ss-RNA PolyC template by Lineweaver-Burk double reciprocal plot analysis; details: dengue virus type 3
[4] = system: O=C(OC1=CS(=O)(=O)Nc2ccc(Oc3ccccc3Br)cc21)c1ccc(F)c(F)c1; assay: Mixed type inhibition of DENV3 NS5 RdRp using increasing concentration of ss-RNA PolyC as template assessed as enzyme Vmax after 1 hr in presence of GTP substrate by Lineweaver-Burk double reciprocal plot analysis; details: dengue virus type 3
dengue virus type 3 = assay: Antiviral activity against DENV3 clinical strain infected in African green monkey Vero E6 cells assessed as decrease in viral RNA levels up to 20 uM by qRT-PCR method; type: functional, organism-based; details: Vero C1008
[5] = target: Nonstructural protein 5 (Dengue virus) (UniProt V5TFZ2); assay: Inhibition of DENV3 NS5 RdRp using ss-RNA PolyC as template and GTP as substrate assessed as decrease in dsRNA levels after 1 hr in presence of tritonX100 by PicoGreen-based fluorescence assay; details: dengue virus type 3
West Nile virus = assay: Antiviral activity against WNV clinical strain infected in African green monkey Vero E6 cells assessed as decrease in viral RNA levels up to 20 uM by qRT-PCR method; type: functional, organism-based; details: Vero C1008
[6] = target: Nonstructural protein 5 (Dengue virus) (UniProt V5TFZ2); assay: Binding affinity to DENV3 NT-647-NHS labeled NS5 RdRp after 1 hr in presence of ss-RNA PolyC as template and GTP as substrate by microscale thermophoresis method; details: dengue virus type 3
Zika virus = assay: Antiviral activity against Zika virus clinical strain infected in African green monkey Vero E6 cells assessed as decrease in viral RNA levels up to 20 uM by qRT-PCR method; type: functional, organism-based; details: Vero C1008
dengue virus type 2 = assay: Antiviral activity against DENV2 clinical strain infected in African green monkey Vero E6 cells assessed as decrease in viral RNA levels up to 20 uM by qRT-PCR method; type: functional, organism-based; details: Vero C1008

“Nonstructural protein 5 (Dengue virus), V5TFZ2” showed a Vmax [1] of 15.8 nM/min, a Km [2] of 0.907 µM and a Km [3] of 5.29 µM. For the same compound, the Vmax [4] was 23.2 nM/min.
In the case of `O=C(OC1=CS(=O)(=O)Nc2ccc(Oc3ccccc3Br)cc21)c1ccc(F)c(F)c1`, the Activity (dengue virus type 3) is reported as “inactive”, the inhibition [5] is reported as “Active” and the Activity (West Nile virus) is reported as “inactive”. The Activity [6] was “Active”, the Activity (Zika virus) was “inactive” and the Activity (dengue virus type 2) was “inactive”.
